{"source": "patent US20250041272A1", "about": "“COMPOSITIONS AND METHODS FOR TREATING CANCER VIA PTP1B INHIBITION” (priority 2021, published 2025)", "target": "T1, ternary complex of PTP1b with Mer and Stat1 (Mus musculus, UniProt P35821)", "T1 construct": "endogenous in cells; host or cells: Primary peritoneal macrophages from C57BL/6J mice, stimulated with IFNγ and LPS and co-cultured with B16F10 melanoma cells", "T1 sequence (P35821 1-432)": "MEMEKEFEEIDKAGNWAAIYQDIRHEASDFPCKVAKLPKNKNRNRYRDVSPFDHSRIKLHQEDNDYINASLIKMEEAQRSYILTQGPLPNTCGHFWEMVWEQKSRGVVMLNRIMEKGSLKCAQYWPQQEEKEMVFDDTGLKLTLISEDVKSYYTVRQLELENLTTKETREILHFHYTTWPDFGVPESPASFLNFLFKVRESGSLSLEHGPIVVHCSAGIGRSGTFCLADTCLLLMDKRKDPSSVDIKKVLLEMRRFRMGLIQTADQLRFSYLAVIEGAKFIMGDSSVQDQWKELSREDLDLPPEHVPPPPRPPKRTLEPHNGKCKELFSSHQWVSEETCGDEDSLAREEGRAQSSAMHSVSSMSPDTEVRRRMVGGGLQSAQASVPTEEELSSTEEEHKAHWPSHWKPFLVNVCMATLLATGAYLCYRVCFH", "experiment": "Co-immunoprecipitation of PTP1b or Stat1 from macrophages co-cultured with B16F10 cells", "format": "cell-based", "method": "Coimmunoprecipitation and Western blot. Coimmunoprecipitation was performed using […] A/G agarose beads (Santa Cruz Biotechnology Inc.) and antibodies for PTP1b (Abcam) or STAT1 (Cell signaling). Samples were incubated for 3 days at 4° C. under rotation and washed three times with RIPA buffer before loading them in 10% Mini-PROTEAN TGX stain-free gels (Biorad). After running the electrophoresis in the Mini-PROTEAN Tetra System (Bio-Rad) proteins were transferred to a 0.2-μm nitrocellulose Trans-Blot Mini Turbo Transfer Pack (Bio-Rad) using a Trans-Blot Turbo Transfer System (Bio-Rad). Membranes were blocked with 5% BSA (Fisher scientific) for 1 hour and blotted with antibodies against MyD88 (Cell Signaling), total STAT1 (Cell Signaling), tyrosine 701 phosphorylated STAT1 (Cell signaling), serine 727 phosphorylated STAT1 (Cell signaling), PTP1 b (Abcam) and Mer (Thermo Fisher scientific). Detection was performed with the ECL HPR-linked anti-rabbit antibody (Cell signaling) and the Clarity-Max Western ECL substrate (Bio-Rad). Blots were imaging with ChemiDoc MP Imaging System (Bio-Rad) and quantitated using ImageJ software (NIH).", "key": {"[1]": {"conditions": "co-immunoprecipitation of Stat1, 24 hours"}}, "data": [{"substance": "BVT948", "values": [{"measurement": "association of PTP1b with Mer and Stat1", "setting": "co-immunoprecipitation of PTP1b, in the presence of B16F10 cells", "result": "reduced the association"}, {"measurement": "Stat1 S727 phosphorylation", "setting": "[1]", "result": "restoration of Stat1 S727 phosphorylation"}, {"measurement": "ternary complex formation", "setting": "[1]", "result": "reduced ternary complex formation"}]}]}
